Here are results for three sequences from US8343924B2, “Composition for improving brain function and method for improving brain function” (Calpis Co., Ltd., priority 2009, dated 2013).

In experiment [1] the test system is scopolamine-induced amnesia. Put plainly: Y-shaped maze test, prophylactic activity against scopolamine-induced amnesia. The format is in vivo. As to conditions: male ddY mice, scopolamine 1 mg/kg s.c. 30 min before test. From the text:
The effect in improving brain function of the composition of the present invention, or the peptide the peptide Pro-Val-Arg-Gly-Pro-Phe-Pro-Ile-Ile-Val (SEQ ID NO: 2) or the peptide Val-Arg-Gly-Pro-Phe-Pro-Ile-Ile-Val (SEQ ID NO: 1) may be confirmed using a system based on an evaluation system for therapeutic drugs against Alzheimer's disease, the system using a Y-shaped maze test, for example. Specifically, a muscarinic receptor antagonist, such as scopolamine, may be used on a rat or a mouse so as to cause a hypofunction of the cholinergic neurons. Then, either the rat or the mouse may be administered with a drug, which induces amnesia by causing brain dysfunction, by itself, or the composition of the present invention, the peptide Pro-Val-Arg-Gly-Pro-Phe-Pro-Ile-Ile-Val (SEQ ID NO: 2) or the peptide Val-Arg-Gly-Pro-Phe-Pro-Ile-Ile-Val (SEQ ID NO: 1) together with such a drug, or the rat or the mouse may be administered, prior to the administration of such a drug, with the composition of the present invention, the peptide Pro-Val-Arg-Gly-Pro-Phe-Pro-Ile-Ile-Val (SEQ ID NO: 2) or the peptide Val-Arg-Gly-Pro-Phe-Pro-Ile-Ile-Val (SEQ ID NO: 1). Then, the mouse or the rat may be subjected to a test using a Y-shaped maze so that the prophylactic actions against amnesia of the composition of the present invention may be confirmed by using the percentage of change in spontaneous alternation behavior to different arms and the total number of entries into the maze as indicators.
Male mice (n=15 to 30) of the ddY strain (approximately 7-week old) were used, and they took food and water ad lib. Test substances used were 3 nmol/kg weight (3 μg/kg weight) and 30 nmol/kg weight (30 μg/kg weight) of Pro-Val-Arg-Gly-Pro-Phe-Pro-Ile-Ile-Val (SEO ID NO: 2). The test substances were administered to the mice once orally 60 minutes before the execution of a Y-shaped maze test for evaluation of spontaneous alternation behavior. […] The sequence of the arms each of the mice entered was recorded. The number of entries by each of the mice for each of the arms during the measurement time was counted to be the total number of entries. […] The percentage of spontaneous alternation behavior was calculated by dividing the number of spontaneous alternation behavior by a number obtained by subtracting 2 from the total number of entries, and multiplying a resultant number by 100. […] The measured values were expressed in the form of mean±standard error for each group. A significant difference between the control group and the scopolamine control group was calculated using Student's t-test. Further, a significant difference between the scopolamine control group and the PVRGPFPIIV (SEQ ID NO: 2)-administered group was calculated using Dunnett's multiple comparison test after one-way analysis of variance. […]

The test system of another experiment is human T2R receptor. As to conditions: functions as a bitter substance; cited from earlier work.
The mark [2] stands for this setting: Example 2, 3 nmol/kg weight (3 μg/kg) once orally 60 min before test.

In the case of “PVRGPFPIIV (Synthetic functional peptide) [Pro-Val-Arg-Gly-Pro-Phe-Pro-Ile-Ile-Val]”, the “prophylactic activity against amnesia (percentage of spontaneous alternation behavior)” value in experiment [1] (Example 1, 3 nmol/kg weight to 30 nmol/kg weight (3 μg/kg to 30 μg/kg) once orally 60 min before test) was “had a prophylactic activity against amnesia”; in experiment [1] (setting [2]), “had a prophylactic activity against amnesia”. Moreover, the “binding to human T2R receptor (receptor for bitter substances)” value in the experiment with human T2R receptor is given as “binds to a human T2R receptor”.

Consider “RGPFPIIV (Synthetic comparative example peptide) [Arg-Gly-Pro-Phe-Pro-Ile-Ile-Val]”, for which, in experiment [1] (setting [2]), the “prophylactic activity against amnesia (percentage of spontaneous alternation behavior)” value is “did not show any activity”.

For “VRGPFPIIV (Synthetic functional peptide) [Val-Arg-Gly-Pro-Phe-Pro-Ile-Ile-Val]”, in experiment [1] (setting [2]), the “prophylactic activity against amnesia (percentage of spontaneous alternation behavior)” value is listed as “had a prophylactic activity against amnesia”.
